{"source": "patent US8309766B2", "about": "(Obschestvo S. Organichennoi Otvetstvennostiyu …, priority 2005, dated 2012)", "key": {"[1]": {"test_system": "\"acetic contortions\" in mice", "test": "Effect on analgetic action of Tramal and Analgin on the model \"acetic contortions\"", "type": "in vivo, white mongrel mice", "experimental": "The tests were conducted on males of white mongrel mice weighing 22-24 grams. The specific pain response (“contortions”) were elicited by intraperitoneal administration to mice of 0.75% acetic acid solution. The following signs were taken into consideration: the number of seizure contractions of abdominal muscles accompanied by stretching the hind limbs and sagging the back. Analgetic effect was assessed by decrease in the number of contortions in animals in percent to the control for 15 minutes post administration of acetic acid. The technique of the tests is disclosed in Koster R., Anderson M., de Beer B.//Fed. Proc. 1959. V. 18. P. 412. Compounds under testing were administered intraperitoneally (using a probe) at a dose 10 μg/kg 60 minutes prior to injection of the acid. Diclofenac (10 mg/kg) was used as a reference drug. Analgetic effect was calculated according to the formula: […]\nThe studies were carried out in accordance with the technique presented in Example 18."}, "[2]": {"test_system": "carrageenan edema of rat paw", "test": "Carrageenan edema of rat paw", "type": "in vivo, outbreed white rats", "conditions": "rats; 1% ointment; 4 hours post carrageenan", "experimental": "The tests were conducted on males of outbreed white rats weighing 250-270 grams. The model of carrageenan edema was used which model is described in Winter et al. In: DeRosa M., Giroud J. P. Willoughby D. A. Studies of the mediators of acute inflammatory response induced in rats in different sites by carrageenan and turpentine.//J. Pharmacol. 1971. V. 104. P. 15-29.\n0.1 ml 1% carrageenan solution (SERVA) was subplantarly injected into a right paw of rats. The animals were placed into individual chambers. […] Paw volume was measured using a pletismometer (Ugo Besile) at 4 hours post carrageenan administration. Therapeutic effect of the ointment was assessed by the inhibition degree of inflammatory reaction as compared to an intact left paw of the given animal and to a paw reaction of a control (untreated) group of rats. Inhibition of inflammatory reaction expressed in percent was calculated according to the formula: […]"}, "[3]": {"test_system": "gastric mucosa of rats", "test": "Ulcerogenic effect on gastric mucosa", "type": "in vivo, outbreed rats", "conditions": "30 mg/kg once intragastrally, at 24 hours, M ± m", "experimental": "The tests were carried out on females of outbreed rats weighing 300-320 grams. The compounds tested were administered once intragastrally at a dose 30 mg/kg to rats deprived of feed for 24 hours prior to the test. Animals in the control group were administered distilled water in the same volume. At 24 hours the animals were sacrificed and stomachs were extracted. An empty stomach was filled with 2% formalin solution and it was placed into a beaker with formalin. 30 minutes later, the stomach was opened along the great curvature, expanded on a slide, fixed and washed with distilled water. Using the magnifying glass MBS-9 (8-fold magnification) length and width of gastric mucosa defects was measured and area in mm^2 was calculated (1 division of the magnifying glass ruler=0.1 mm). Ulcerogenic effect of a substance was assessed by ulcerous lesion area of gastric mucosa according to the technique presented in Rukovodstvo po experimental'nomu (doklinicheskomu) izucheniju novykh pharmacologicheskikh veshchestv (the Guide on Experimental (pre-clinical) Study of Novel Pharmacological Substances)./Moscow. “Remedium” publishers. 2000, 398 pages."}, "[4]": {"test_system": "\"acetic contortions\" in mice", "test": "Analgetic activity on the model \"acetic contortions\"", "type": "in vivo, white mongrel mice", "conditions": "dose 10 mg/kg (table title)"}, "[5]": {"test_system": "\"hot plate\" test in mice", "test": "Analgetic activity on the model \"hot plate\"", "type": "in vivo, white mongrel mice", "conditions": "10 mg/kg; for response vs control in vivo at 10 mg/kg / change in vivo at 10 mg/kg: Mus musculus; for response vs control in vivo at 10 mg/kg: percent of background, read-out: Latent time of NT (%); for change in vivo at 10 mg/kg: read-out: Analgesia (%)"}, "[6]": {"test_system": "rat uterine horn's SMP", "test": "Serotonin-induced contracture of rat uterine horn smooth muscle preparation", "set-up": "species or system Wistar rats", "conditions": "for Inhibition of contractions of the rat uterine horn's SMP, % / Rate of contractions of the rat uterine horn's SMP during 5 minutes: serotonin 10^−5 M; for Rate of contractions of the rat uterine horn's SMP during 5 minutes: control 9", "experimental": "The model of serotonin-induced soft muscular contracture of an uterine horn [Blattner H. G., Dehnert H. et al. Experiments on isolated smooth muscle preparation. Ed. J. M. Barnden and R. Colson, 1980] was created on females of Wistar rats weighing 300-350 grams. A prepared smooth muscle preparation (SMP) was placed into a thermo-regulated chamber (+37° C.) containing Tirode solution with lowered calcium content in order to prevent spontaneous contractive activity of the smooth muscle preparation. Contraction of the uterine horn was recorded using the mechanotron 6M×2B connected to the polygraph KPS-4; initial load to the object was 0.5-0.7 grams.\nContracture of the SMP was induced by introduction into incubation medium of 0.1 ml serotonin (Sigma) at concentration 10^−5 M. 30-60 seconds post administration of the mediator, a peak contraction amplitude of the uterine horn was recorded. Compound IX was introduced into the chamber at the peak amplitude of contractions or under conditions of incubation (within the same range of concentrations) for 15 minutes.\nThe effect of compound IX being tested was assessed by a number of contractions and by lowering the amplitude value."}, "[7]": {"conditions": "IX 10 mg/kg alone (Analgin study)"}, "[8]": {"conditions": "added at the peak serotonin-induced contracture"}}, "note": "Where two headings read alike, the source gives them in different places."}
{"compound": "O=C(CCc1ccc(O)cc1)NCCc1ccccc1", "note": "[Compound IX, 3-(p-hydroxyphenyl)-propionylphenylethylamine]", "values": [{"measurement": "Analgetic effect, %", "setting": "[1]; [7]", "value": 43.3, "unit": "%"}, {"measurement": "Number of contortions for 15 minutes, M ± m", "setting": "[1]; [7]", "value": "18.8 ± 3.1"}, {"measurement": "Analgetic effect, %", "setting": "[1]; IX 10 mg/kg, Tramal 10 mg/kg, alone or combined", "value": 33.6, "unit": "%"}, {"measurement": "Edema inhibition (%)", "setting": "[2]", "value": 53.1, "unit": "%"}, {"measurement": "Paw volume gain (%)", "setting": "[2]", "value": 32.9, "unit": "%"}, {"measurement": "Area of ulcerous lesion", "setting": "[3]", "value": 0, "unit": "mm^2"}, {"measurement": "inhibition in vivo at 10 mg/kg", "setting": "[4]; Mus musculus, ip, 0.25 h, read-out: Analgetic effect (%)", "value": 68, "unit": "%"}, {"measurement": "response vs control in vivo at 10 mg/kg", "setting": "[4]; Mus musculus, ip, 0.25 h, read-out: C, % to the control", "value": 32, "unit": "%"}, {"measurement": "C ± m (the number of contortions for 15 minutes)", "setting": "[4]; 60 minutes prior to acetic acid", "value": "11.8 ± 2.9"}, {"measurement": "latent time of nociception threshold, M ± m", "setting": "[5]; 30 minutes post administration", "value": "8.4 ± 1.23", "unit": "s"}, {"measurement": "latent time of nociception threshold, M ± m", "setting": "[5]; 60 minutes post administration", "value": "7.36 ± 1.04", "unit": "s"}, {"measurement": "latent time of nociception threshold, M ± m", "setting": "[5]; 120 minutes post administration", "value": "9.83 ± 2.52", "unit": "s"}, {"measurement": "latent time of nociception threshold, M ± m", "setting": "[5]; 240 minutes post administration", "value": "7.72 ± 0.24", "unit": "s"}, {"measurement": "response vs control in vivo at 10 mg/kg", "setting": "[5]; 0.5 h, 30 minutes", "value": 203, "unit": "%"}, {"measurement": "change in vivo at 10 mg/kg", "setting": "[5]; 0.5 h, 30 minutes", "value": 103, "unit": "%"}, {"measurement": "response vs control in vivo at 10 mg/kg", "setting": "[5]; 1 h, 60 minutes", "value": 178, "unit": "%"}, {"measurement": "change in vivo at 10 mg/kg", "setting": "[5]; 1 h, 60 minutes", "value": 77.8, "unit": "%"}, {"measurement": "response vs control in vivo at 10 mg/kg", "setting": "[5]; 2 h, 120 minutes", "value": 237, "unit": "%"}, {"measurement": "change in vivo at 10 mg/kg", "setting": "[5]; 2 h, 120 minutes", "value": 137, "unit": "%"}, {"measurement": "response vs control in vivo at 10 mg/kg", "setting": "[5]; 4 h, 240 minutes", "value": 186, "unit": "%"}, {"measurement": "change in vivo at 10 mg/kg", "setting": "[5]; 4 h, 240 minutes", "value": 86.5, "unit": "%"}, {"measurement": "Inhibition of contractions of the rat uterine horn's SMP, %", "setting": "[6]; [8]", "value": 44.4, "unit": "%"}, {"measurement": "Rate of contractions of the rat uterine horn's SMP during 5 minutes", "setting": "[6]; [8]", "value": 5}, {"measurement": "SMP contracture after the slowed contractions", "setting": "[6]; pre-incubation conditions", "value": "complete blockade"}, {"measurement": "Inhibition of contractions of the rat uterine horn's SMP, %", "setting": "[6]; pre-incubation for 15 minutes", "value": 55.6, "unit": "%"}, {"measurement": "Rate of contractions of the rat uterine horn's SMP during 5 minutes", "setting": "[6]; pre-incubation for 15 minutes", "value": 4}]}
